Test results as given in patent US5652353A, “DNAs encoding tumor necrosis factor-α muteins” (priority 1990, dated 1997).

Tests used:
[1] = test system: human p55-TNF-R; assay: Filter binding competition of 125I-TNFα on purified p55-TNF-R from HL60 cells; conditions: with respect to TNFα
Method: (§1) The filters were blocked with blocking buffer (50 mM Tris, 140 mM NaCl, 5 mM EDTA, 0.02% NaN3, 1% defatted milk powder) for 1.5 hours at room temperature. […] The filters were washed with blocking buffer (2× for 5 min.) and with H2 O (1× for 5 min.), air dried, and counted in a γ-counter.

[2] = test system: human p75-TNF-R; assay: Filter binding competition of 125I-TNFα on purified p75-TNF-R from HL60 cells
Method: as §1

[3] = test system: Hep-2 cells; format: cell-based, human; conditions: in words; accuracy of assay a factor of 3
Method: (§2) The amount of protein was determined by the Biorad (Richmond, Calif., USA) protein dye reagent according to the instructions of the manufacturer. The purity of the TNF muteins was determined by SDS-PAGE. The cytotoxic activity on mouse L929 cells was determined using the standard L929 assay (Ruff and Gifford in "Lymphokines", ed. by E. Pick, Vol. 2, 235-275, Academic Press, 1981, Orlando, USA). The cytotoxicity assay on Hep-2 cells was performed the same way as the L929 assay with the only exception that cycloheximide (50 μg/ml) was added instead of actinomycin D.

[4] = test system: mouse L929 cells; assay: Standard L929 cytotoxicity assay; format: cell-based; conditions: relative to TNF-α
Method: as §2

[5] = test system: U937 cells (predominantly but not exclusively p75-TNF-R); assay: Competition analysis: displacement of 125I-TNF-α by unlabeled mutant TNF on U937 cells; format: binding, human; conditions: for Mean dpm: Table B
Method: Hep-2 [ATCC No. CCL 23], U937 [ATCC No. CRL 1593] and RAJI [ATCC No. CCL 86] cells were grown in RPMI 1640 medium, supplemented with 10% (v/v) inactivated .fetal calf serum, L-glutamine (2 mM), sodium pyruvate (1 mM), 2-mercaptoethanol (5×10^-5 M), 1% of a 100× mixture of non-essential amino acids [Gibro Laboratories, Paisley, GB] and gentamycine ([…]). The non-adherent cells (U937 and RAJI) were harvested after reaching a density of 1×10^6 cells/ml. For binding experiments, the adherent Hep-2 cells were grown to confluency, trypsinized, collected and seeded in large. Petri dishes (150 cm^2) at a density of 2.5×10^6 cells/ml. Subsequently, the dishes were placed in a CO2 -incubator overnight. Because Hep-2 cells are not strongly adherent, the cells could be harvested the same way as the non-adherent cells. Dulbecco's medium, supplemented with 10% inactivated newborn calf serum was used for L929 cell growth. […] A ten well dilution series of unlabeled mutant TNF ([…] to 0.004 μM) in concentration steps in multiples of 2 was set up in a microtiterplate. […] After addition of 2×10^6 cells, the total volume was 0.2 ml/well. The medium of incubation, reaction conditions and isolation of the cells were exactly the same as described above for the Scatchard analysis experiments. […] The following experimental data were used for such calculations: From each experiment shown in these tables, the KD value was calculated using the programm of Mc. Pherson et al. (1985).

Substance: Trp^32 -TNFα: TNF-α mutein with tryptophan substituted at position 32, SEQ ID No: 9
- Decrease in Affinity [1]: 1.5 fold
- IC50 ([2]; competition with 125I-TNFα): 5 µg/mL
- Decrease in Affinity ([2]; with respect to TNFα): 500 fold
- biological activity (specific activity) on Hep-2 cells [3]: largely retained
- decrease of biological activity on L929 cells (factor) [4]: more than 100
- binding affinity for p75-TNF-R as share of its binding affinity to p55-TNF-R [5]: about 3%
- Mean dpm ([5]; experiment 1, U937 cells, concentration of mutant 1 × 10^-6): 777 dpm
- Mean dpm ([5]; experiment 1, U937 cells, concentration of mutant 1 × 10^-9): 1917 dpm
- Mean dpm ([5]; experiment 1, U937 cells, concentration of mutant 1.25 × 10^-7): 1166 dpm
- Mean dpm ([5]; experiment 1, U937 cells, concentration of mutant 1.5 × 10^-8): 1488 dpm
- Mean dpm ([5]; experiment 1, U937 cells, concentration of mutant 2 × 10^-6): 628 dpm
- Mean dpm ([5]; experiment 1, U937 cells, concentration of mutant 2 × 10^-9): 1698 dpm
- Mean dpm ([5]; experiment 1, U937 cells, concentration of mutant 3 × 10^-8): 1377 dpm
- Mean dpm ([5]; experiment 1, U937 cells, concentration of mutant 4 × 10^-9): 1655 dpm
- Mean dpm ([5]; experiment 1, U937 cells, concentration of mutant 5 × 10^-7): 953 dpm
- Mean dpm ([5]; experiment 1, U937 cells, concentration of mutant 6 × 10^-8): 1333 dpm
- Mean dpm ([5]; experiment 1, U937 cells, concentration of mutant 8 × 10^-9): 1585 dpm
- Mean dpm ([5]; experiment 1, U937 cells, concentration of mutant […] 10^-7): 1026 dpm
- Mean dpm ([5]; experiment 2, U937 cells, concentration of mutant 1.10^-6): 357 dpm
- Mean dpm ([5]; experiment 2, U937 cells, concentration of mutant 1.2 × 10^-7): 508 dpm
- Mean dpm ([5]; experiment 2, U937 cells, concentration of mutant 1.5 × 10^-8): 636 dpm
- Mean dpm ([5]; experiment 2, U937 cells, concentration of mutant 2 × 10^-6): 294 dpm
- Mean dpm ([5]; experiment 2, U937 cells, concentration of mutant 3 × 10^-8): 585 dpm
- Mean dpm ([5]; experiment 2, U937 cells, concentration of mutant 4 × 10^9): 653 dpm
- Mean dpm ([5]; experiment 2, U937 cells, concentration of mutant 5 × 10^-7): 422 dpm
- Mean dpm ([5]; experiment 2, U937 cells, concentration of mutant 6 × 10^-8): 546 dpm
- Mean dpm ([5]; experiment 2, U937 cells, concentration of mutant 8 × 10^-9): 629 dpm
- Mean dpm ([5]; experiment 2, U937 cells, concentration of mutant […] 10^-7): 479 dpm
- Mean dpm ([5]; experiment 3 (125I-TNF batch 2), U937 cells, concentration of mutant 1 × 10^-6): 1192 dpm
- Mean dpm ([5]; experiment 3 (125I-TNF batch 2), U937 cells, concentration of mutant 1.25 × 10^-7): 2387 dpm
- Mean dpm ([5]; experiment 3 (125I-TNF batch 2), U937 cells, concentration of mutant 1.5 × 10^-8): 3620 dpm
- Mean dpm ([5]; experiment 3 (125I-TNF batch 2), U937 cells, concentration of mutant 2 × 10^-6): 814 dpm
- Mean dpm ([5]; experiment 3 (125I-TNF batch 2), U937 cells, concentration of mutant 3 × 10^-8): 3275 dpm
- Mean dpm ([5]; experiment 3 (125I-TNF batch 2), U937 cells, concentration of mutant 4 × 10^-9): 4759 dpm
- Mean dpm ([5]; experiment 3 (125I-TNF batch 2), U937 cells, concentration of mutant 5 × 10^-7): 1472 dpm
- Mean dpm ([5]; experiment 3 (125I-TNF batch 2), U937 cells, concentration of mutant 6 × 10^-8): 3034 dpm
- Mean dpm ([5]; experiment 3 (125I-TNF batch 2), U937 cells, concentration of mutant 8 × 10^-9): 4041 dpm
- Mean dpm ([5]; experiment 3 (125I-TNF batch 2), U937 cells, concentration of mutant […] 10^-7): 1981 dpm
- reduction of binding affinity for p75-TNF-R ([5]; relative to its binding affinity to p55-TNF-R): approximately 33 fold
